# Results reported in publication PMC8365604 (Journal of Medicinal Chemistry, 2021).
# Where a name gives a salt, the structure may show the parent alone.
# Assay: physchem
row,solubility,Compound
1,19.4 µg/mL,"O=C(O)c1ccc(-c2ccnc(Nc3ccccc3)n2)cc1C1CCCC1 [compound 62, 2-Cyclopentyl-4-(2-(phenylamino)pyrimidin-4-yl)benzoic Acid Hydrochloride]"
2,60 µg/mL,"O=C(O)c1ccc2c3c1cccc3c(=O)n1c3ccccc3nc21 [STO-609, 7-oxo-7H-benzimidazo[2,1-a]benz[de]isoquinoline-3-carboxylic acid, reference compound]"
3,10.6 µg/mL,"O=C(O)c1ccc(-c2ccncn2)cc1C1CCCC1 [compound 56, 2-Cyclopentyl-4-(pyrimidin-4-yl)benzoic Acid]"
